{"source": "patent US9028845B2", "about": "“Chimeric immunomodulatory compounds and methods of using the same-IV” (Dynavax Technologies Corporation, priority 2001, dated 2015)", "key": {"PBMCs": {"test_system": "PBMCs", "assay": "Human PBMC proliferation assay (3H-thymidine incorporation)", "format": "cell-based", "conditions": "Experiment A; for mean cpm: 2 μg/ml"}, "mice": {"test_system": "mice", "assay": "Serum cytokines (IL-12 p40, IL-6, TNF-α) after subcutaneous injection in mice", "format": "in vivo", "conditions": "20 ug subcutaneous, blood 2 hours later", "procedure": "Blood was collected 2 hours later. For the LPS positive control group, mice were injected intraperitoneally with a 200 ul volume, and blood was collected 1.5 hours later (i.e., at the peak of LPS induced TNF-α activity). The blood was clotted and the serum was prepared and stored at −80° C. until assayed. Serum cytokines were assayed using Biosource cytoscreen kits for TNF-α and Pharmingen antibody pairs for mIL-6 and mIL-12. All samples were assayed in duplicate."}}, "note": "Strand notation (5' to 3'): a small letter for the sugar, then the base; units joined by * are phosphorothioate-linked, units joined directly phosphodiester-linked; [ ] holds rarer units or linkages, { } end groups; capitals alone tell only the bases. d = 2'-deoxy (DNA)"}
{"substance": "5′-TGACTGTGAACCTTAGAGATGA-3′ (SEQ ID NO: 3) (dT*dG*dA*dC*dT*dG*dT*dG*dA*dA*dC*dC*dT*dT*dA*dG*dA*dG*dA*dT*dG*dA) [Compound P-7, negative control, reference compound]", "values": [{"measurement": "cpm1", "setting": "PBMCs; Donor 146, 2 μg/ml", "value": 7620, "unit": "cpm"}, {"measurement": "cpm2", "setting": "PBMCs; Donor 146, 2 μg/ml", "value": 8362, "unit": "cpm"}, {"measurement": "cpm3", "setting": "PBMCs; Donor 146, 2 μg/ml", "value": 9686, "unit": "cpm"}, {"measurement": "mean cpm", "setting": "PBMCs; Donor 146 mean", "value": 8556, "unit": "cpm"}, {"measurement": "cpm1", "setting": "PBMCs; Donor 147, 2 μg/ml", "value": 9783, "unit": "cpm"}, {"measurement": "cpm2", "setting": "PBMCs; Donor 147, 2 μg/ml", "value": 9841, "unit": "cpm"}, {"measurement": "cpm3", "setting": "PBMCs; Donor 147, 2 μg/ml", "value": 10476, "unit": "cpm"}, {"measurement": "mean cpm", "setting": "PBMCs; Donor 147 mean", "value": 10033, "unit": "cpm"}, {"measurement": "mean of both", "setting": "PBMCs; mean of Donors 146 and 147, 2 μg/ml", "value": 9295, "unit": "cpm"}, {"measurement": "induction of serum IL-12 p40, IL-6 and TNF-α, in words", "setting": "mice", "value": "inactive"}]}
